Like-named read-outs stand apart in the source and are kept apart here.
Columns and labels:
LIN28–let-7 interaction [1] = target: T1, LIN28–let-7 interaction (Homo sapiens, UniProt Q9H9Z2); assay: Fluorescence polarization (FP) assay, LIN28A (residues 16–187) and FAM-labeled preE-let-7f-1; type: binding
T1 construct: Purified LIN28A (residues 16–187) was incubated at a concentration of 200 nM; His-tag (cleaved yes); made in house; host or cells: Escherichia coli BL21(DE3)
T1 sequence (Q9H9Z2 16-187): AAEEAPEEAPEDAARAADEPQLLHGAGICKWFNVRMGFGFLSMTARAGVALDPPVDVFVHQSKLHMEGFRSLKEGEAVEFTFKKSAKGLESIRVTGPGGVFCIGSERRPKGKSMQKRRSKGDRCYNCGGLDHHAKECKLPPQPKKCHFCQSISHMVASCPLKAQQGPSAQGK
Method: Protein expression and purification.
19 vector and overexpressed in Escherichia coli BL21(DE3). The culture was incubated at 37 °C until
the absorbance at 600 nm (OD600) reached 0.5–0.7. IPTG was added to a final concentration of
300 µM, and overnight induction was performed at 18 °C. Cells were harvested by centrifugation.
The bacterial pellet was resuspended in lysis buffer (50 mM NaH2PO4, pH 7.5, 300 mM NaCl,
0.1 mM PMSF) and lysed using a Microfluidizer (Microfluidics) . A fresh portion of 0.1 mM PMSF
and Triton X-100 (1% final concentration) were added. The lysate was cleared by ultra centrifugation
at 30000 xg and 4 °C for 1 h. The protein purification was performed using immobilized nickel
300 mM NaCl and 5 % glycerol. Gradient elution was performed with a maximum of 0.5 M imidazole.
Subsequently, the affinity tag was cleaved using His6 -TEV-protease and the protease and unspecific
binders were eliminated by a second nickel affinity chromatography. After protein concentration
LIN28A containing fractions were concentrated and applied to a High Load Superdex 75 pg 16/600
column (GE Healthcare) with gel-filtration buffer (30 mM NaH2PO4, pH 7.5, 50 mM NaCl, 5%
glycerol, 2 mM β-ME). The purified protein was concentrated and stored at -80 °C until further
Fluorescence polarization. The fluorescence polarization assay was performed in black low volume
IC50 measurements were performed with three technical
minutes with compound concentrations ranging from 0.3 nM to 100 µM in FP assay buffer (20 mM
Tris, pH 7, 100 mM NaCl, 5 mM MgCl2, 2 mM glutathione (reduced), 0.1 % NP-40). Subsequently,
FAM-labeled preE-let-7f-1 (mus musculus) ([…]-
FAM, synthesized by IDT) was added to a final concentration of 2 nM. Fluorescence polarization
(§1) was detected after incubation at room temperature using a TECAN Spark plate reader. Half maximal
inhibitory concentrations (IC50) were determined using GraphPad Prism 7. […]

LIN28–let-7 complex = target: T2, LIN28–let-7 complex (Homo sapiens, UniProt Q9H9Z2); assay: Electrophoretic mobility shift assay (EMSA); type: binding; conditions: compound concentrations up to 75 µM
T2 construct: Purified LIN28A (residues 16–187) was incubated at a concentration of 200 nM; His-tag (cleaved yes); made in house; host or cells: Escherichia coli BL21(DE3)
T2 sequence (Q9H9Z2 16-187): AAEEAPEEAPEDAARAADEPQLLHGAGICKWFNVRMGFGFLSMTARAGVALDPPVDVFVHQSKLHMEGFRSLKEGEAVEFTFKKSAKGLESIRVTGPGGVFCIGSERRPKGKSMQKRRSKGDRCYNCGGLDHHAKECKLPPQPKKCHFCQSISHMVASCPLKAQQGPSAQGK
Method: as §1
inhibitory concentrations (IC50) were determined using GraphPad Prism 7.
Compound screening. High throughput screening was performed in low volume 384 well plates
(Corning 4514) with 30 µM compound, 40 nM LIN28A, and 2 nM preE-let-7f-1-FAM in FP assay
buffer. Compounds were transferred with an ECHO 520 liquid handler and protein and RNA were
added with a multidrop dispenser. Protein and RNA were added stepwise with a 30 min incubation
period in between. FP was detected after a final incubation of 15 min with an Envision plate reader
and fluorescence was measured with a Paradigm plate reader. A reaction without LIN28 served as a
negative control and one without compound was used as a positive control. The software Quattro
Workflow (Quattro Research GmbH) was used for the analysis of screening data.
Electrophoretic mobility shift assay. EMSA was used as a secondary assay to validate FP-assay hit
molecules. Purified LIN28A (residues 16–187) was incubated with compound and 5 U recombinant
ribonuclease inhibitor (Takara Bio) in EMSA reaction buffer (50 mM Tris (pH 7.5), 100 mM NaCl,
10 mM β-mercaptoethanol, 50 µM ZnCl2, 2 % DMSO, 0.01 % Tween 20, 12 % glycerol) for 2 hours
at room temperature. Subsequently, preE-let-7f-1-Cy3 (mus musculus) (GGGGUAGUGAUUUUAC
CCUGUUUAGGAGAU-Cy3, purchased from IDT) was added to a final concentration of 5 nM and
a reaction volume of 50 µL. The final concentration of LIN28A was 10 nM and compound
concentrations up to 75 µM were used. The reaction mixtures were incubated for a further 15 minutes
and 10 µL loading dye (40 % glycerol, 1.5x TAE) was added. 10 µL of each reaction was separated
in an 8 % polyacrylamide TAE gel at 4 °C and 220 V for 1 h using 0.25x TAE as running buffer. Cy3
fluorescence was detected with a ChemiDoc M P (Bio-Rad) and 2 minutes of exposure time.
Thermal shift assay. Thermal stability of the cold shock domain construct LIN28 A (residues 16–
126) with and without compound was monitored using a NanoTemper Prometheus NT.48 nano -

LIN28–let-7 interaction [2] = target: T1, LIN28–let-7 interaction; assay: Fluorescence polarization (FP) assay, LIN28A (residues 16–187) and FAM-labeled preE-let-7f-1; type: binding; conditions: Table 1; quadruplicate; starting from 30 μM, eight concentrations; extrapolated based on the observed IC50 curves; read-out: IC50, LIN28–let-7 inhibitory activity
LIN28 [3] = test system: LIN28; parameters: method as in PMID 27668966; conditions: reported value; cited from earlier work
LIN28 [4] = test system: LIN28; parameters: method as in PMID 27548809; conditions: reported value; read-out: IC50 (ELISA); cited from earlier work
[5] = target: T3, LIN28A (16-187), untagged (human, UniProt Q9H9Z2 16-187); assay: competition (fluorescence polarization); competes with 2 nM FAM-preE-let-7f-1; FP: 20 mM Tris pH 7, 100 mM NaCl, 5 mM MgCl2, 2 mM GSH, 0.1% NP-40 (200 nM LIN28A, 2 nM RNA in IC50 assays); EMSA: 50 mM Tris pH 7.5, 100 mM NaCl, 10 mM beta-ME, 50 uM ZnCl2, 2% DMSO, 0.01% Tween 20, 12% glycerol, 2 h, room temperature; conditions: protein: recombinant; tags: none (His-tag cleaved by TEV); stem loop
T3 sequence: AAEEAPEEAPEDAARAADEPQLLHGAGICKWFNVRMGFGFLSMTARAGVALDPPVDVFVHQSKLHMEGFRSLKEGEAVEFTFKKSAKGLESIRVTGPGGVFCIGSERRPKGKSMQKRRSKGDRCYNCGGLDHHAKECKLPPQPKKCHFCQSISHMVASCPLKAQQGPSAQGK

O=C(O)c1cccc(N2C(=O)C(O)=C(C(=O)c3ccc(Br)cc3)C2c2ccc(-c3nccs3)cc2)c1 (stereo not shown) [C903]
activity in the FP assay (LIN28–let-7 interaction [1]): FP-inactive | inhibition of the LIN28–let-7 complex in EMSA (LIN28–let-7 complex): did not show activity | IC50 (LIN28–let-7 interaction [2]): > 100 µM

CC1(C)Oc2cc(N3CCN(C(=O)OCc4ccccc4)CC3)c([N+](=O)[O-])cc2-c2c1cnn2-c1ccc(C(=O)O)cc1 [SB1301, reference compound]
IC50 (LIN28–let-7 interaction [1]; text and figures, C-labels = library sample, PH-labels = in-house resynthesized, read-out: IC50 in the FP assay): 27 µM | IC50 (LIN28 [3]): 4 µM

CC(=O)N(C)c1cccc(-c2ccc3nnc(C)n3n2)c1 [compound 1632]
IC50 (LIN28 [4]): 8 µM

GGGGUAGUGAUUUUACCCUGUUUAGGAGAU (structured_RNA) [preE-let-7f-1, unlabeled]
IC50 [5]: 0.055 µM

From PMC8201479, “Trisubstituted Pyrrolinones as Small-Molecule Inhibitors Disrupting the Protein–RNA Interaction of LIN28 and Let-7” (ACS Medicinal Chemistry Letters, 2021)
